Reference: ChEMBL document CHEMBL1201862, “PubChem BioAssay data set” (2004)
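Interpolation was linear, between the two tested concentrations surrounding the appropriate level; five concentrations were tested over 48 hours in 96-well plates. GI50 = concentration required for 50% inhibition of growth.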 Activity calls are given as the source filed them. No stated cut-off is given here; in the data, active = GI50 up to about 1.1 µM and inactive = higher.

How the values were obtained:
Test in all cases: NCI-60 cell line screen, 48 h
ACHN = test system: ACHN
SNB-19 = test system: SNB-19
OVCAR-8 = test system: OVCAR-8
HCT-116 = test system: HCT-116
DU-145 = test system: DU-145
OVCAR-4 = test system: OVCAR-4
HL-60 = test system: HL-60
U-251 = test system: U-251
NCI-H522 = test system: NCI-H522
NCI-H23 = test system: NCI-H23
NCI/ADR-RES = test system: NCI/ADR-RES
IGROV-1 = test system: IGROV-1
COLO 205 = test system: COLO 205
MDA-MB-435 = test system: MDA-MB-435
UACC-257 = test system: UACC-257
OVCAR-3 = test system: OVCAR-3
SR = test system: SR
BT-549 = test system: BT-549
CAKI-1 = test system: CAKI-1
PC-3 = test system: PC-3

Measured: GI50

C=C1N(S(=O)(=O)c2ccc(C)cc2)C(=O)OCC12CCCC2
inactive: ACHN > 100 µM | SNB-19 > 100 µM | OVCAR-8 > 100 µM | HCT-116 55.3 µM | DU-145 > 100 µM | OVCAR-4 72.6 µM | HL-60 40.3 µM | U-251 76 µM | NCI-H522 > 100 µM | NCI-H23 59.3 µM | NCI/ADR-RES 81.7 µM | IGROV-1 31.3 µM | COLO 205 72.8 µM | MDA-MB-435 > 100 µM | UACC-257 80.4 µM | OVCAR-3 52.4 µM | SR 45.7 µM | BT-549 > 100 µM | CAKI-1 94.4 µM | PC-3 34.6 µM

COc1ccc(C2=C(N)c3cc(OC)ccc3C2=O)cc1
inactive: ACHN 49.9 µM | SNB-19 24.5 µM | OVCAR-8 > 100 µM | HCT-116 > 100 µM | DU-145 > 100 µM | OVCAR-4 > 100 µM | HL-60 > 100 µM | U-251 > 100 µM | NCI-H522 > 100 µM | NCI-H23 55.7 µM | NCI/ADR-RES 88.7 µM | IGROV-1 > 100 µM | COLO 205 > 100 µM | MDA-MB-435 > 100 µM | UACC-257 > 100 µM | OVCAR-3 > 100 µM | SR 23.8 µM | BT-549 > 100 µM | CAKI-1 > 100 µM | PC-3 > 100 µM

CCOC(=O)c1sc2nc(SC)nc3c2c1NCN3c1ccc2c(c1)OCO2
inactive: ACHN 5.94 µM | SNB-19 11.4 µM | OVCAR-8 5.41 µM | HCT-116 27.5 µM | DU-145 12.1 µM | OVCAR-4 5.2 µM | HL-60 52 µM | U-251 7.03 µM | NCI-H522 31.1 µM | NCI-H23 41.9 µM | NCI/ADR-RES 8.77 µM | IGROV-1 26.1 µM | COLO 205 35.2 µM | MDA-MB-435 14.8 µM | UACC-257 > 100 µM | OVCAR-3 10.8 µM | SR 39.3 µM | BT-549 30.1 µM | CAKI-1 58.1 µM | PC-3 14.3 µM

C=C1C(=O)O[C@H]2[C@@H]3O[C@@](C)(CC/C=C(\C)CCC[C@@H]2C)[C@H](O)C[C@@H]13
inactive: ACHN 1.98 µM | SNB-19 > 10 µM | OVCAR-8 3.15 µM | HCT-116 3.66 µM | DU-145 6.5 µM | OVCAR-4 7.18 µM | HL-60 2.34 µM | U-251 13.5 µM | NCI-H522 1.61 µM | NCI-H23 1.61 µM | NCI/ADR-RES 2.04 µM | IGROV-1 4.72 µM | COLO 205 2.42 µM | MDA-MB-435 3.06 µM | UACC-257 10 µM | OVCAR-3 2.59 µM | SR 3.16 µM | BT-549 2.79 µM | CAKI-1 1.42 µM | PC-3 8.49 µM
